Columns and labels:
human COX-2 = target: T1, human COX-2 (Homo sapiens, UniProt P35354); assay: COX-2 enzyme assay (EIA kit, PGF2α readout); assay type: biochemical; conditions: human COX-2 enzyme, EIA; 15 min pre-incubation at 37° C.; read-out: COX-2 IC50 (μM) enzyme
T1 construct: purchased Cayman Chemical Co., Ann Arbor, Mich., USA 701080
T1 sequence (P35354 18-604): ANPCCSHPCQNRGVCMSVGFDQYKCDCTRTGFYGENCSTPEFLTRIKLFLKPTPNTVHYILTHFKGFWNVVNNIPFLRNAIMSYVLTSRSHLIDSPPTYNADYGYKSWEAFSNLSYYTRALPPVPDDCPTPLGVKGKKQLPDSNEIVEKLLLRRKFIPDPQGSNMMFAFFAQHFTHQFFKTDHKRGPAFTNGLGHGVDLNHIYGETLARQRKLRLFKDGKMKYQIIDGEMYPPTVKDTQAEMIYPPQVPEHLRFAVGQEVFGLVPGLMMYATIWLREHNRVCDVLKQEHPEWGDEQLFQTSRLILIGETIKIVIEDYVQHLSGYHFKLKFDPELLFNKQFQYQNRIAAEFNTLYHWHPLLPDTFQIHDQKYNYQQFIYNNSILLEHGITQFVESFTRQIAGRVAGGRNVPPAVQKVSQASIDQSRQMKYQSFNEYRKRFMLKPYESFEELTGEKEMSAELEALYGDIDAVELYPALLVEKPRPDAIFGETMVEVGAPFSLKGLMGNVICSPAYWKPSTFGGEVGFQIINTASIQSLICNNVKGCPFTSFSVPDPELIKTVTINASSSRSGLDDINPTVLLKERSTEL
Method: (§1) The ability of compounds to inhibit ovine COX-1 and human COX-2 was determined using a commercially available enzyme immunoassay (EIA) kit (catalog no. 701090 (COX-1); 701080 (COX-2) Cayman Chemical Co., Ann Arbor, Mich., USA) according to the manufacturer's protocol. COX catalyzes the first step in the biosynthesis of AA to PGH2. PGF2α, produced from PGH2 by reduction with stannous chloride, was measured by EIA (ACE™ competitive EIA, Cayman Chemical, Ann Arbor, Mich., USA). Briefly, to a series of supplied reaction buffer solutions [960 μl 0.1 M Tris-HCl (pH 8.0) containing 5 mM EDTA and 2 mM phenol] with either COX-1 or COX-2 (10 μl) enzyme in the presence of heme (10 μl), 10 μl of various concentrations of test drug solutions were added. These solutions were incubated for 15 min at 37° C. and subsequently 10 μl AA solution (100 μM) was added. The COX reaction was stopped by the addition of 30 μl stannus chloride after 2 min, mixed immediately, supernatants were 2000 fold diluted. The produced PGF2α was measured by EIA. This assay is based on the competition between PGs and a PG-acetylcholinesterase conjugate (PG tracer) for a limited amount of PG antiserum. The amount of PG tracer that is able to bind to the PG antiserum is inversely proportional to the concentration of PGs in the wells since the concentration of the PG tracer is held at a constant while the concentration of PGs varies. The specific antiserum-PG complex bound to a mouse anti-rabbit IgG that had been previously attached to the well. The plate was washed to remove any unbound reagents and 200 μl Ellman's reagent (5,5′-dithiobis-(2-nitrobenzoic acid), which contains the substrate to acetylcholine esterase, was added to the well. The product of this enzymatic reaction generates a distinct yellow color that absorbs at 406 nm. The intensity of this color, determined by spectrophotometry, is proportional to the amount of PG tracer bound to the well, which is inversely proportional to the amount of PGs present in the well during the incubation. Percent inhibition was calculated by the comparison of the compounds treated to the various control incubations.
(§2) Dose-response curves were generated using XLFit (IDBS, Surrey, UK) or Prism (GraphPad Software, La Jolla, Calif., US) to calculate IC50 values for each compound tested.

COX-2 = target: T2, COX-2 (Mus musculus, UniProt Q05769); assay: Cell-based COX-2 assay (PGE2 in LPS/IFN-g stimulated RAW264.7 cells); conditions: RAW264.7 murine macrophages, 1 μg/ml LPS and 10 U/ml IFN-g for 7 h, PGE2 readout
T2 construct: endogenous in cells; host or cells: RAW264.7 murine macrophages, stimulated with LPS and IFN-g
T2 sequence (Q05769 18-604): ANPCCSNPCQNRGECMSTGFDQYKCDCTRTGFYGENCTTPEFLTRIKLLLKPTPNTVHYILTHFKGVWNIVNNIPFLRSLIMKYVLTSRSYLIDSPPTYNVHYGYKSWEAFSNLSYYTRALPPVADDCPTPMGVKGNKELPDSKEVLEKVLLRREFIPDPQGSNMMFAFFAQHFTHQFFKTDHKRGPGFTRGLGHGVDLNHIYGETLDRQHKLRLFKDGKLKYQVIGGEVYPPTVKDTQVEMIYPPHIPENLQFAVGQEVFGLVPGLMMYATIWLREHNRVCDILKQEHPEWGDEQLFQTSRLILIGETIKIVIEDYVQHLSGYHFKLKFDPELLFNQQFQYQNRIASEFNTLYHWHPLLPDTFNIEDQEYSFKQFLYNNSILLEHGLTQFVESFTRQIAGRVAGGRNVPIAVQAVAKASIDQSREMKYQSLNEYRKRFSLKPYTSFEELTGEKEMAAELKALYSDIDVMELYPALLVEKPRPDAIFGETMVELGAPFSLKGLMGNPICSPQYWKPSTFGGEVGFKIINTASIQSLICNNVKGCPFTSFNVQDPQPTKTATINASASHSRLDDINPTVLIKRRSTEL
Method: RAW264.7 murine macrophages were obtained from the Cell Bank of Shanghai Institute of Biochemistry and Cell Biology, Chinese Academy of Sciences (Shanghai, China) and cultured in Dulbecco's modified Eagle's medium containing 100 U/ml penicillin and 100 μg/ml streptomycin at 37° C. in 5% CO2.
RAW264.7 cells were plated at a density of 2.5×10^5/ml cells in a 96-well plate with 0.1 ml of culture medium per well and cultured overnight. The cells were pre-incubated for 30 min with various doses of compounds and stimulated for 7 h with 1 μg/ml LPS and 10 U/ml IFN-g. The cell culture supernatants were collected immediately following treatment and centrifuged at 1,000 rpm for 5 min to remove the particulate matter. PGE2 was determined using a Prostaglandin E2 assay kit (catalog no. 62P2APEB; Cisbio Co.,). 10 μL of cell supernatant was transferred to a 384-well low volume plate (e.g. Corning® 3544), 5 μL of PGE2-d2 was added, followed by 5 μL anti-PGE2 Cryptate as a negative control. Replace the standard by 10 μL of diluent and PGE2-d2 by 5 μL of reconstitution buffer, Cal0 (for positive control), replace the standard by 10 μL of diluent. Incubate at 4° C. overnight. After centrifuging at 1,000 rpm for 1 min, the dual fluorescence emissions of 615 and 665 nm with a 320 nm excitation were measured using an Envision plate reader (Perkin Elmer, Shelton, Conn.). The results are expressed as the ratio of 665 nm/615 nm emissions.
as §2

ovine COX-1 = target: T3, ovine COX-1 (Ovis aries, UniProt P05979); assay: biochemical; conditions: ovine COX-1 enzyme, EIA; read-out: COX-1 IC50 (μm) enzyme
T3 sequence (P05979 25-600): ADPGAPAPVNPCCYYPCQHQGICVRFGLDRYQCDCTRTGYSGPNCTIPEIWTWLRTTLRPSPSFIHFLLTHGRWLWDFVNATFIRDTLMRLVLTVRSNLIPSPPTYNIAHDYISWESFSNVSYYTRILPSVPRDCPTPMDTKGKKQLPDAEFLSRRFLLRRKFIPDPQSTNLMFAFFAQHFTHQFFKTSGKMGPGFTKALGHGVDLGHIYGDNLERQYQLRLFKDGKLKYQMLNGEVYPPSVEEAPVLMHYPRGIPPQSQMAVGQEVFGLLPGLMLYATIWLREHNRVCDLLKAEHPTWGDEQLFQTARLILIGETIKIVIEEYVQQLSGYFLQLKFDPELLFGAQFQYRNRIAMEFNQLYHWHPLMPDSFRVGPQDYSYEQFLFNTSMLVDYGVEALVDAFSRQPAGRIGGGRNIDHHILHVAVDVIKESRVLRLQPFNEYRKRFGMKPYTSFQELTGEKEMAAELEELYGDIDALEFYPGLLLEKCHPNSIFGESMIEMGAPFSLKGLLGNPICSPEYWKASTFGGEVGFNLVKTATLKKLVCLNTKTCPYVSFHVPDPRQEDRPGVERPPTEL
Method: as §1, §2

SMILES: COc1ccc2c(c1)c(CC(=O)NCCCOCCC[N+]13CC[S][Re-]14(=[O])[S]CC[N]4CC3)c(C)n2C(=O)c1ccc(Cl)cc1 (stereo not drawn) [Compound 306]
- IC50 (human COX-2): 0.7 µM
- IC50 (COX-2): 0.2 µM
- IC50 (ovine COX-1): > 30 µM
